This note sets out measurements from patent publication US20050176733A1, “Chk-1 inhibitors” (Millennium Pharmaceuticals, Inc., priority 2004, published 2005).

The target of the assay is T1, Recombinant human Chk-1 (GST-Chk-1) (Homo sapiens, UniProt O14757).
T1 construct: made in house; host or cells: insect cells (baculovirus, Bac-to-Bac expression system)
T1 sequence (O14757 1-476): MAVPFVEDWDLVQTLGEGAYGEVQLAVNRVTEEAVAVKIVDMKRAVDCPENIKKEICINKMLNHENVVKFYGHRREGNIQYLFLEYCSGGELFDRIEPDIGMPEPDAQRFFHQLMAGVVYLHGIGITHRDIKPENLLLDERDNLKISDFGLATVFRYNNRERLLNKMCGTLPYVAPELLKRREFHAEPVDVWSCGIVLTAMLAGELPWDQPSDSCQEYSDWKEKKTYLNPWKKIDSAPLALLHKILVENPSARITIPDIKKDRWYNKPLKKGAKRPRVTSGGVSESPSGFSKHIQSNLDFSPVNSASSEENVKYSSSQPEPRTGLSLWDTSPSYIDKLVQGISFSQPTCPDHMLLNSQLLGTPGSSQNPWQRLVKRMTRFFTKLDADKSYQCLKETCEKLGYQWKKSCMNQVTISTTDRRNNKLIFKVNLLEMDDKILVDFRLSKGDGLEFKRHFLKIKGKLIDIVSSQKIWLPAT
Kind of assay: Chk-1 FlashPlate Kinase Assay. The settings on record: for inhibition at 1 µM: at a concentration of 1.0 μM; for inhibition at 10 µM: at a concentration of 10 μM, read-out: inhibition of Chk-1 (Chk-1 induced 33P incorporation). The format is biochemical. As to the method: Recombinant human Chk-1 was expressed as a fusion protein with glutathione S-transferase at the amino-terminus (GST-Chk-1) using standard baculovirus vectors and (Bac-to-Bac®) insect cell expression system purchased from GIBCO™ Invitrogen.
Recombinant protein expressed in insect cells was purified using glutathione sepharose (Amersham Biotech) using standard procedures described by the manufacturer.
Assays (25 μL) contained 8.7 nM GST-Chk-1, 10 mM MES, 0.1 mM ethylene glycol-bis(β-aminoethylether)-N,N,N′,N′-tetraacetic acid (EGTA, pH 8.0), 2 mM DTT, 0.05% Tween 20, 3 μM peptide substrate (Biotin-ILSRRPSYRKILND-free acid) (SEQ ID NO: 1), 1 μM ATP, 0.4 μCi ^33P-γ-ATP (NEN), 4% DMSO. Reactions were incubated for 30 minutes at room temperature, terminated with 50 μL of 50 mM EDTA and […] were transferred to streptavidin-coated FlashPlates® (NEN) and incubated for 1 hour at room temperature. Plates were washed with phosphate buffered saline containing 0.01% Tween-20 and 10 mM sodium pyrophosphate. Plates were dried, sealed with Topseal™ (NEN) and amount of ^33P incorporated into the peptide substrate measure using a Packard Topcount® NXT™ scintillation counter with standard settings.

In the case of `NC(=O)c1ccc(NC(=O)Nc2cc(Cl)ccc2OCCCNC(=O)[C@@H](N)Cc2ccc(Cl)cc2)nc1` [Compound I-2, 6-[3-(2-{3-[2-Amino-3-(4-chloro-phenyl)-propionylamino]-propoxy}-5-chloro-phenyl)-ureido]-nicotinamide], the inhibition at 1 µM was at least 50% and the inhibition at 10 µM was at least 50%.

Take `Cc1cnc(NC(=O)Nc2cc(Cl)ccc2OCCCNC(=O)CN(C)C)cn1` [Compound I-4, N-(3-{4-Chloro-2-[3-(5-methyl-pyrazin-2-yl)-ureido]-phenoxy}-propyl)-2-dimethylamino-acetamide]: the inhibition at 1 µM was at least 50% and the inhibition at 10 µM is at least 50%.

As for `Cc1cnc(NC(=O)Nc2cc(Cl)ccc2OCCCNC(=O)N2CCOCC2)cn1` [Compound I-5, Morpholine-4-carboxylic acid (3-{4-chloro-2-[3-(5-methyl-pyrazin-2-yl)-ureido]-phenoxy}-propyl)-amide], the inhibition at 1 µM was at least 50% and the inhibition at 10 µM is at least 50%.

`Cc1cnc(NC(=O)Nc2cc(Cl)ccc2OCCCNC(=O)CN2CCOCC2)cn1` [Compound I-6, N-(3-{4-Chloro-2-[3-(5-methyl-pyrazin-2-yl)-ureido]-phenoxy}-propyl)-2-morpholin-4-yl-acetamide]: the inhibition at 1 µM is at least 50% and the inhibition at 10 µM was at least 50%.

`Cc1cnc(NC(=O)Nc2cc(Cl)ccc2OCCCNC(=O)CN2CCN(C)CC2)cn1` [Compound I-7, N-(3-{4-Chloro-2-[3-(5-methyl-pyrazin-2-yl)-ureido]-phenoxy}-propyl)-2-(4-methyl-piperazin-1-yl)-acetamide]: the inhibition at 1 µM is at least 50% and the inhibition at 10 µM was at least 50%.

In the case of `Cc1cnc(NC(=O)Nc2cc(Cl)ccc2OCC(=O)N2CCOCC2)cn1` [Compound I-8, 1-[5-Chloro-2-(2-morpholin-4-yl-2-oxo-ethoxy)-phenyl]-3-(5-methyl-pyrazin-2-yl)-urea], the inhibition at 1 µM was at least 50% and the inhibition at 10 µM is at least 50%.

With `Cc1cnc(NC(=O)Nc2cc(C(=O)NCCN(C)C)ccc2OCCCNC(=O)c2ccc(Cl)cc2)cn1` [Compound I-9, 4-[3-(4-Chloro-benzoylamino)-propoxy]-N-(2-dimethylamino-ethyl)-3-[3-(5-methyl-pyrazin-2-yl)-ureido]-benzamide], the inhibition at 1 µM was at least 50% and the inhibition at 10 µM is at least 50%.

`Cc1cnc(NC(=O)Nc2ccc(N3CCCC3)cc2OCCCNC(=O)c2ccc(Cl)cc2)cn1` [Compound I-10, 4-Chloro-N-(3-{2-[3-(5-methyl-pyrazin-2-yl)-ureido]-5-pyrrolidin-1-yl-phenoxy}-propyl)-benzamide]: the inhibition at 10 µM was at least 50%.

In the case of `Cc1cnc(NC(=O)Nc2ccc(N3CCCC3)cc2OCCCNC(=O)CN(C)C)cn1` [Compound I-11, 2-Dimethylamino-N-(3-{2-[3-(5-methyl-pyrazin-2-yl)-ureido]-5-pyrrolidin-1-yl-phenoxy}-propyl)-acetamide], the inhibition at 1 µM is at least 50% and the inhibition at 10 µM was at least 50%.

`N#Cc1ccc(NC(=O)Nc2cc(Cl)ccc2OCCCNC(=O)N2CCOCC2)nc1` [Compound I-12, Morpholine-4-carboxylic acid (3-{4-chloro-2-[3-(5-cyano-pyridin-2-yl)-ureido]-phenoxy}-propyl)-amide]: the inhibition at 1 µM was at least 50% and the inhibition at 10 µM is at least 50%.

On to `Cc1cnc(NC(=O)Nc2ccc(N3CCN(C)CC3)cc2OCCCNC(=O)c2ccc(Cl)cc2)cn1` [Compound I-13, 4-Chloro-N-(3-{5-(4-methyl-piperazin-1-yl)-2-[3-(5-methyl-pyrazin-2-yl)-ureido]-phenoxy}-propyl)-benzamide], for which the inhibition at 1 µM was at least 50% and the inhibition at 10 µM was at least 50%.

As to `CN1CCN(C(=O)CCCOc2ccc(Cl)cc2NC(=O)Nc2ccc(C#N)cn2)CC1` [Compound I-14, 1-{5-Chloro-2-[4-(4-methyl-piperazin-1-yl)-4-oxo-butoxy]-phenyl}-3-(5-cyano-pyridin-2-yl)-urea], the inhibition at 1 µM is at least 50% and the inhibition at 10 µM is at least 50%.

For the compound `Cc1cnc(NC(=O)Nc2cc(Cl)ccc2OCCCNC(=O)c2ccc(N(C)C)cc2)cn1` [Compound I-15, N-(3-{4-Chloro-2-[3-(5-methyl-pyrazin-2-yl)-ureido]-phenoxy}-propyl)-4-dimethylamino-benzaminde], the inhibition at 1 µM was at least 50% and the inhibition at 10 µM was at least 50%.

Regarding `Cc1cnc(NC(=O)Nc2cc(Cl)ccc2OCCCNC(=O)[C@@H](N)Cc2ccc(Cl)cc2)cn1` [Compound I-16, 2-Amino-N-(3-{4-chloro-2-[3-(5-methyl-pyrazin-2-yl)-ureido]-phenoxy}-propyl)-3-(4-chloro-phenyl)-propionamide], the inhibition at 1 µM was at least 50% and the inhibition at 10 µM is at least 50%.

As to `CN1CCN(C(=O)NCCCOc2ccc(Cl)cc2NC(=O)Nc2ccc(C#N)cn2)CC1` [Compound I-18, 4-Methyl-piperazine-1-carboxylic acid (3-{4-chloro-2-[3-(5-cyano-pyridin-2-yl)-ureido]-phenoxy}-propyl)-amide], the inhibition at 1 µM is at least 50% and the inhibition at 10 µM is at least 50%.

Take `Cc1cnc(NC(=O)Nc2cc(C(=O)N3CCN(C)CC3)ccc2OCCCNC(=O)c2ccc(Cl)cc2)cn1` [Compound I-20, 4-Chloro-N-(3-{4-(4-methyl-piperazine-1-carbonyl)-2-[3-(5-methyl-pyrazin-2-yl)-ureido]-phenoxy}-propyl)-benzamide]: the inhibition at 10 µM is at least 50%.

For `CN(C)CC(=O)NCCCOc1ccc(Cl)cc1NC(=O)Nc1ccc(C#N)cn1` [Compound I-39, N-(3-{4-Chloro-2-[3-(5-cyano-pyridin-2-yl)-ureido]-phenoxy}-propyl)-2-dimethylamino-acetamide], the inhibition at 1 µM was at least 50% and the inhibition at 10 µM was at least 50%.

Regarding `N#Cc1ccc(NC(=O)Nc2cc(Cl)ccc2OCCCC(=O)N2CCOCC2)nc1` [Compound I-110, 1-[5-Chloro-2-(4-morpholin-4-yl-4-oxo-butoxy)-phenyl]-3-(5-cyano-pyridin-2-yl)-urea], the inhibition at 10 µM is at least 50%.

Consider `Cc1cnc(NC(=O)Nc2cc(Cl)ccc2OCCCNC(=O)C(N)c2ccc(Cl)cc2)cn1` (centres unmarked) [Compound I-111, 2-Amino-N-(3-{4-chloro-2-[3-(5-methyl-pyrazin-2-yl)-ureido]-phenoxy}-propyl)-2-(4-chloro-phenyl)-acetamide], for which the inhibition at 1 µM is at least 50% and the inhibition at 10 µM is at least 50%.
